Reference: patent US8883213B2, “Ion exchange resin treated to control swelling” (Coating Place, Inc., priority 2005, dated 2014)
Structures can show the parent of a compound that is named as a salt.

Experiments:
[1] = Release of both drugs from coated layer loaded compound B-phenylephrine HCl-IRP-69 drug-resin complex (Table VII); assay type: physicochemical; settings: from coated layer loaded compound B-phenylephrine HCl-IRP-69 complex
Protocol: The present invention also provides compositions and methods of releasing two or more pharmaceutical compositions. For example, a phenylephrine HCl and IRP-69 drug-resin complex is prepared using any of the methods disclosed herein or as disclosed in the prior art. The phenylephrine HCl and IRP-69 drug-resin complex is directly loaded with a second drug (e.g., compound B) by spray applying a solution containing compound B to the phenylephrine HCl-IRP-69 drug-resin complex. This layer loaded complex (compound B-phenylephrine HCl-IRP-69 drug-resin complex) is then coated as previously described.

[2] = Release profile of phenylephrine hydrochloride from drug-resin complex with a 25% coating (Table V); assay type: physicochemical

- Released ([1]; 0.5 hour): 48%
- Released ([1]; 1.0 hour): 55%
- Released ([1]; 1.5 hour): 76%
- Released ([1]; 2.0 hour): 81%
- Released ([1]; 4.0 hour): 92%
- % Released ([2]; 0.5 hr): 25.5%
- % Released ([2]; 1.0 hr): 30.5%
- % Released ([2]; 3.0 hr): 61.0%
- % Released ([2]; 6.0 hr): 93.0%
- % Released ([2]; 12.0 hr): 97.0%
Structure (SMILES): CNC[C@H](O)c1cccc(O)c1 [Phenylephrine Hydrochloride]
